As a reminder, the melting point is the temperature, or range, at which the solid turns liquid.

The record followed here is patent US20080269286A1, “Disubstituted Phenylpiperidines as Modulators of Cortical Catecholaminergic Neurotransmission” (priority 2005, published 2008).

Where a name gives a salt, the structure may show the parent alone.

In series [1] the test system is DOPAC levels (3,4-dihydroxyphenylacetic acid) in the rat striatum. Description: In vivo test: neurochemistry, tissue content of DOPAC in the striatum. To be noted: sc, 1 h, 100 μmol/kg s.c., 60 minutes after administration, %-increase from control value. The protocol:
In short, male Sprague-Dawely rats are administered the test compound 60 minutes prior to decapitation. The brain is rapidly taken out and dissected. The striatum is rapidly frozen and subsequently quantitatively analysed with respect to its content of DOPAC by means of HPLC and electrochemical detection. The number of animals used for each test compound/vehicle is 4/group.
Male Sprague-Dawley rats weighing 220-320 g are used throughout the experiments. Sixty (60) minutes following administration of the test substance, the rats are decapitated. Directly after decapitation the brain is removed from the skull and put on a glass petri bowl filled with ice. The limbic system (containing the nucleus accumbens—both the core and shell, most parts of the olfactory tubercle and ventral pallidum) is dissected using two thin, angled tweezers and put directly on foil on dry ice (carbon dioxide −78° C.). The striatum and cortex are then dissected and also put on dry ice. The time from decapitation until the last tissue is dissected varies from four to six minutes. The tissue is weighed using a Sartorius BP3105 connected to a computer and packed in labelled tin foil, then stored in an −80° C. freezer. Great care is taken in order to keep the tissue frozen until the time of neurochemical analysis. Each brain part is subsequently analyzed with respect to its content of monoamines and their metabolites.
The monoamine transmitter substances (NE (norepinephrine), DA (dopamine), 5-HT (serotonin)) as well as their amine (NM (normethanephrine), 3-MT (3-methoxytyramine)) and acid (DOPAC (3,4-dihydroxyphenylacetic acid), 5-HIAA (5-hydroxyindoleacetic acid), HVA (homovanillic acid)) metabolites are quantified in brain tissue homogenates by HPLC separations and electrochemical detection.
The analytical method is based on two chromatographic separations dedicated for amines or acids. Two chromatographic systems share a common auto injector with a 10-port valve and two sample loops for simultaneous injection on the two systems. Both systems are equipped with a reverse phase column (Luna C18(2), dp 3 μm, 50*2 mm i.d., Phenomenex) and electrochemical detection is accomplished at two potentials on glassy carbon electrodes (MF-1000. Bioanalytical Systems, Inc.). The column effluent is passed via a T-connection to the detection cell or to a waste outlet. This is accomplished by two solenoid valves, which block either the waste or detector outlet. By preventing the chromatographic front from reaching the detector, better detection conditions are achieved. […] Detection potentials relative to Ag/AgCl reference are 0.45 and 0.60V. […] Detection potentials relative to Ag/AgCl reference are 0.45 and 0.65V.

The test system of series [2] is extracellular levels of dopamine and norepinephrine. The series is described as follows: In vivo test: microdialysis, extracellular monoamines in striatum and prefrontal cortex. On the set-up: species or system rat. Particulars: awake and freely moving rats; for levels of dopamine and norepinephrine in the cortex (microdialysis): 50 μmol/kg s.c., pf. cortex, FIGS. 11-24. The source says: The microdialysis technique (Ungerstedt, Herrera-Marschitz et al. 1982) is a well established technique for measuring extracellular levels of neurotransmitters (Ungerstedt 1991). The microdialysis technique was used to measure the effect of drugs upon the monoamine transmitters. The appended graphs (FIGS. 9 and 10) show the effects of one established antidepressant (mirtazapine) upon monoamines in the striatum and frontal cortex, as well as for seven compounds claimed in the present invention (FIGS. 11-24; Examples 1, 3, 4, 6, 9, 10 and 11). The number of animals (n) used for each compound tested is noted in the figure legend.
Male Sprague-Dawley rats weighing 220-320 g were used throughout the experiments. Before the experiment the animals were group housed, five animals in each cage, with free access to water and food. The animals were housed at least one week after arrival prior to surgery and use in the experiments. Each rat was used only once for microdialysis. We use a modified version (Waters, Lofberg et al. 1994) of the I-shaped probe (Santiago and Westerink 1990). The dialysis membrane we use is the AN69 polyacrylonitrile/sodium methalylsulfonate copolymer (HOSPAL; o.d./i.d. 310/220 μm: Gambro, Lund, Sweden). In the dorsal striatum we use probes with an exposed length of 3 mm of dialysis membrane and in the prefrontal cortex the corresponding length is 2.5 mm. The rats were operated under isoflurane inhalation anesthesia while mounted into a Kopf stereotaxic instrument. Coordinates were calculated relative to bregma; dorsal striatum AP+1, ML±2.6, DV−6.3; Pf cortex, AP+3.2, 8° ML±1.2, DV−4.0 according to (Paxinos and Watson 1986). The dialysis probe was positioned in a burr hole under stereotaxic guidance and cemented with phosphatine dental cement.
The rats were housed individually in cages for 48 h before the dialysis experiments, allowing them to recover from surgery and minimizing the risk of drug interactions with the anaesthetic during the following experiments. During this period the rats had free access to food and water. On the day of experiment the rats were connected to a micro perfusion pump via a swivel and were replaced in the cage where they could move freely within its confinements. The perfusion medium was a Ringer's solution containing in mmol/l: NaCl; 140, CaCl2; 1.2, KCl; 3.0, MgCl2; 1.0 and ascorbic acid; 0.04 according to (Moghaddam and Bunney 1989). The pump was set to a perfusion speed of 2 μl/min and 40 μl samples were collected every 20 min.
30 μl of each sample was injected into the chromatograph. On a 10-port injector (Valco C10W), with two sample loops mounted in series (2 μl and 20 μl), each brain dialysate sample is loaded in both loops simultaneously. When the valve is switched to inject the main part of the 20 μl sample is introduced into a reverse-phase ion-pairing system for dopamine (DA), norepinephrine (NE), normetanephrine (NM), 3-methoxytyramine (3-MT) and serotonin (5-hydroxytryptamine, 5-HT) determination (large loop), while a small fraction (2 μl, from the small loop) is introduced on a reverse-phase column for the chromatography of the acidic monoamine metabolites 3,4-di-hydroxyphenylacetic acid (DOPAC), homovanillic acid (HVA) and 5-hydroxyindoleacetic acid (5-HIAA). The currents generated by the two EC detectors are converted to digital data and evaluated using Chromelion software (Dionex, Sunnyvale, Calif.) on a PC. The method sample turn over time was 4.5 min and two parallel experiments are normally analysed simultaneously on the system. After the experiment the rats were uncoupled from the perfusion pump and decapitated. Their brains were rapidly taken out and fixed in Neo-fix solution (Kebo-lab, Sweden) for subsequent inspection of probe localisation. The Animal Ethics Committee in Göteborg, Sweden approved the procedures applied in these experiments. • Moghaddam, B. and B. S. Bunney (1989). […]

`Fc1ccc(C2CCNCC2)cc1C(F)F`: the change in vivo at 100 µmol/kg in series [1] was 17%. Regarding `Fc1cc(F)cc(C2CCNCC2)c1` (as salt: fumaric acid salt) [Example 3, 4-(3,5-DIFLUOROPHENYL)PIPERIDINE], the melting point was 178 °C.

`Fc1ccc(C2CCNCC2)cc1C(F)(F)F` (as salt: hydrochloric acid salt): the melting point was in the range of 195 to 196 °C.

`Fc1ccc(C2CCNCC2)c(F)c1` (as salt: hydrochloric acid salt) [Example 1, 4-(2,4-DIFLUOROPHENYL)PIPERIDINE] came in with a melting point of 256 to 258 °C. As for `Fc1ccc(C2CCNCC2)cc1F` (as salt: hydrochloric acid salt) [Example 4, 4-(3,4-DIFLUOROPHENYL)PIPERIDINE], the melting point lay within 255 to 256 °C. In turn, `Clc1ccc(C2CCNCC2)cc1Cl` (as salt: hydrochloric acid salt) [Example 6, 4-(3,4-DICHLOROPHENYL)PIPERIDINE] had a melting point of 170 °C. Regarding `Fc1cc(Cl)cc(C2CCNCC2)c1` (as salt: hydrochloric acid salt) [Example 10, 4-(3-CHLORO-5-FLUOROPHENYL)PIPERIDINE], the melting point came to 243 °C. On the same count and under the same terms, as for `CN1CCC(c2ccc(F)cc2F)CC1` (as salt: hydrochloric acid salt) [Example 11, 4-(2,4-DIFLUOROPHENYL)-1-METHYLPIPERIDINE], the figure is 198 °C.

In turn, `Fc1ccc(C2CCNCC2)cc1Cl` (as salt: oxalic acid salt) [Example 9, 4-(3-CHLORO-4-FLUOROPHENYL)PIPERIDINE] came in with a melting point of 147 °C. As for `Fc1ccc(C2CCNCC2)c(F)c1` [Example 1, 4-(2,4-DIFLUOROPHENYL)PIPERIDINE], the “levels of dopamine and norepinephrine in the cortex (microdialysis)” value (from here on “levels of dopamine and norepinephrine”) in series [2] was “elevate the levels of dopamine and norepinephrine in the cortex”.

Take `Fc1cc(F)cc(C2CCNCC2)c1` [Example 3, 4-(3,5-DIFLUOROPHENYL)PIPERIDINE]: in series [2], the “levels of dopamine and norepinephrine” value was “elevate the levels of dopamine and norepinephrine in the cortex”. Turning to `Fc1ccc(C2CCNCC2)cc1F` [Example 4, 4-(3,4-DIFLUOROPHENYL)PIPERIDINE], in series [2], the “levels of dopamine and norepinephrine” value is “elevate the levels of dopamine and norepinephrine in the cortex”. With `Clc1ccc(C2CCNCC2)cc1Cl` [Example 6, 4-(3,4-DICHLOROPHENYL)PIPERIDINE], in series [2], the “levels of dopamine and norepinephrine” value was “elevate the levels of dopamine and norepinephrine in the cortex”. The same measure, in the same setting: as for `Fc1ccc(C2CCNCC2)cc1Cl` [Example 9, 4-(3-CHLORO-4-FLUOROPHENYL)PIPERIDINE], the entry is “elevate the levels of dopamine and norepinephrine in the cortex”; as for `Fc1cc(Cl)cc(C2CCNCC2)c1` [Example 10, 4-(3-CHLORO-5-FLUOROPHENYL)PIPERIDINE], “elevate the levels of dopamine and norepinephrine in the cortex”; as for `CN1CCC(c2ccc(F)cc2F)CC1` [Example 11, 4-(2,4-DIFLUOROPHENYL)-1-METHYLPIPERIDINE], “elevate the levels of dopamine and norepinephrine in the cortex”.

As for `Fc1ccc(C2CCNCC2)c(F)c1` [drawing 13], in series [1], the change in vivo at 100 µmol/kg was -36%. Take `Fc1cc(F)cc(C2CCNCC2)c1` [drawing 15]: the change in vivo at 100 µmol/kg in series [1] is -19%. Consider `Clc1ccc(C2CCNCC2)cc1Cl` [drawing 16], for which the change in vivo at 100 µmol/kg in series [1] was -14%. The same measure, in the same setting: as for `Fc1ccc(C2CCNCC2)cc1Cl` [drawing 17], the figure is -29%; as for `Fc1cc(Cl)cc(C2CCNCC2)c1` [drawing 18], -26%; as for `CN1CCC(c2ccc(F)cc2F)CC1` [drawing 19], -41%. On to `CN1CCN2c3ncccc3Cc3ccccc3C2C1` (centres unmarked) [mirtazapine, reference compound], for which the “extracellular norepinephrine and dopamine in the cortex (microdialysis)” value in series [2] (10 mg/kg s.c., p.f. cortex, FIG. 10) is “increase predominantly extracellular norepinephrine and dopamine in the cortex”. As to `CCCN1CCC(c2ccc(Cl)c(C(F)(F)F)c2)CC1` [reference compound], in series [1], the change in vivo at 100 µmol/kg is 94%. Still for that read-out and setting: as for `CCCN1CCC(c2ccc(F)c(C(F)(F)F)c2)CC1` [reference compound], the figure is 94%; as for `CCCN1CCC(c2cc(F)cc(C(F)(F)F)c2)CC1` [reference compound], 239%. In the case of `CCN1CCC(c2cc(F)cc(C(F)(F)F)c2)CC1` [reference compound], the change in vivo at 100 µmol/kg in series [1] is 232%. On the same count and under the same terms, as for `CCN1CCC(c2ccc(F)c(C(F)(F)F)c2)CC1` [reference compound], the figure is 75%; as for `CCCN1CCC(c2cccc(S(C)(=O)=O)c2)CC1` [reference compound], 114%.
